In patent US20240165129A1, “METHODS OF TREATING PAIN AND DEPRESSION” (priority 2022, published 2024):
Where two headings read alike, the source gives them in different places.

Key:
[1] = test system: C57BL/6J mice (inflammatory pain); assay: Carrageenan-evoked inflammatory pain, von Frey paw withdrawal; assay type: in vivo, mouse; settings: 12 mg/kg IV, 2 h after 2% carrageenan intraplantar
Protocol: Triol inhibits the above ASICs, so Triol has an analgesic effect. […] Experiments are performed on 12-week-old (20-25 g) C57BL/6J mice following the guidelines of the International Association for the Study of Pain. Inflammatory pain is evoked by intraplantar injection in the left hindpaw of 2% carrageenan (20 μl). After 2 h, Triol (12 mg/kg) or vehicle (20% HP-β-CD) is injected IV. The mechanical withdrawal threshold on the plantar surface of the hindpaw is measured with a set of von Frey hairs in the range of 0.4-26 gm (0.4, 1.2, 2, 4, 6, 8, 10, 15, 26 gm).

[2] = molecular target: T1, homomeric ASIC1a channels (Homo sapiens, UniProt P78348); assay type: cell-based
T1 construct: expressed in transfected cells
T1 sequence (P78348 1-528): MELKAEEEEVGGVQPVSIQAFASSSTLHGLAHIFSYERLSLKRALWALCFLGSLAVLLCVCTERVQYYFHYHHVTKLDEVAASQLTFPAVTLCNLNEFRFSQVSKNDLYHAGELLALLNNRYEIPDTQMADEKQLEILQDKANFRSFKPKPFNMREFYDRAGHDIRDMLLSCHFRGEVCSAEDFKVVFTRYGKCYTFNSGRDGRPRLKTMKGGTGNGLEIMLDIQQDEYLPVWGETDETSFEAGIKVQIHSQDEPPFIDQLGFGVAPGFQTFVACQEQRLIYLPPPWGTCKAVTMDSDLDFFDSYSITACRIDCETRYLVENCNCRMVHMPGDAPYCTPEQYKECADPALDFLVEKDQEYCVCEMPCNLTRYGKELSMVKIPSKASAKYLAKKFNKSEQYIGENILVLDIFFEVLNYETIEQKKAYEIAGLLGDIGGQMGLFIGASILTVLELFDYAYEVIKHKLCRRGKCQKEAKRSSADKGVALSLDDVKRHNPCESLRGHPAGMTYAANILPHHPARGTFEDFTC

homomeric ASIC2a = molecular target: T2, homomeric ASIC2a (Rattus norvegicus, UniProt Q62962); assay: Patch-clamp recording of ASIC2a currents in CHO cells with transient expression; settings: 10 μM, pH drop 7.4 to 4.5, n=4-5
T2 sequence (Q62962 1-512): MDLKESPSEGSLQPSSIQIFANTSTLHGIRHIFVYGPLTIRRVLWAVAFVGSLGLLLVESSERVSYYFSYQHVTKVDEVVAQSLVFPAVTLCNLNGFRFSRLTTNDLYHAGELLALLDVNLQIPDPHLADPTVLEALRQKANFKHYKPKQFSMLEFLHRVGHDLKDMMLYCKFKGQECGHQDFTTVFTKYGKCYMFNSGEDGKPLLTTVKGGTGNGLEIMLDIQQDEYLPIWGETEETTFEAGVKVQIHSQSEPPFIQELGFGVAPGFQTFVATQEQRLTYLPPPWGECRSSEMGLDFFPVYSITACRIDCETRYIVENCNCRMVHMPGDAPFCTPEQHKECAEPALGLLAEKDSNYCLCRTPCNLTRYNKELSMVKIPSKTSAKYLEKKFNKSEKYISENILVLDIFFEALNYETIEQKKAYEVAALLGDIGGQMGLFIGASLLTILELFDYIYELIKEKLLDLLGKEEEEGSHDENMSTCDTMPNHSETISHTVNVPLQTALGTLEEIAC
Protocol: (§1) Chinese hamster ovary (CHO) cells were cultured in F12-K medium (Invitrogen) plus 10% fetal bovine serum, 50 units/nal penicillin, and 50 μg/m1 streptomycin. At ˜50% confluence, CHO cells were co-transfected with cDNAs for rat ASIC1β, ASIC2a, or ASIC3, and that for GFP. GFP-positive cells were used for electrophysiological recordings 24-72 h after transient transfection.
(§2) ASIC currents were recorded using patch-clamp techniques. Pipette solution contained (mM): 140 CsF, 1 CaCl2, 2 MgCl2, 11 EGTA, 2 tetraethylammonium chloride, 10 HEPES and 4 MgATP, pH 7.3 adjusted with CsOH, 290-300 mOsm. Extracellular Fluid (ECF) contained (mM): 140 NaCl, 5.4 KCl, 2 CaCl2, 1 MgCl2, 10 glucose, and 10 HEPES (320-330 mOsm). A multi-barrel perfusion system (SF-77 Warner Instruments, Hamden, CT) was used to obtain a rapid exchange of ECFs. Currents were recorded with Axopatch 200B amplifier, filtered at 2 kHz, and digitized at 5 kHz using Digidata 1332A. ASIC currents were induced by rapid perfusion of the cells with acidic ECF for 4 seconds. Unless otherwise stated, cells were clamped at a holding potential of −60 mV. […] Data were excluded for statistical analysis when access resistance was >10 MΩ or leak current was >100 pA.
(§3) Therefore, the study used pH 6.0 and 4.5 to activate ASIC1β and ASIC2a currents, respectively. […]

[3] = test system: Sprague-Dawley rats (CFA-induced pain); assay: CFA rat pain model, paw pressure (vocalization) and mechanical hypersensitivity tests
Protocol: Male Sprague-Dawley rats (150-175 g) are acclimatized for a week before testing. Rats are housed in a controlled room with a 12-hour light/dark cycle, with free access to food and water. Rats are housed 4 per cage except after the bilateral implantation experiment (2 per cage and individually following surgery). Pain is induced by a single unilateral intra-articular injection of 50 μl complete Freund's adjuvant (CFA, heat-killed Mycobacterium 2 mg/ml) in the right hindpaw under isoflurane (4%) anaesthesia. Sham rats are injected with 50 μl of vehicle in the same conditions. Behavioral experiments are performed 14-16 days after pain induction, when rats weighed between 260 to 320 g. […]
The effect of Triol (0.05 μg/0.5 μl/side) 15 min before the behavioral tests is evaluated in sham and Pain rats, 14 to 16 days following pain induction. The behavior of each rat is then assessed in the different tests (i.e., social interaction or elevated plus maze for anxiety, and paw pressure or paw immersion for pain, see below).
Mechanical hypersensitivity in sham and Pain animals is assessed with an analgesiometer (paw pressure test). Nociceptive thresholds are measured by applying increased pressure to the ipsilateral ankle of unrestrained rats until a vocalisation is obtained. […] Vocalization threshold is assessed at baseline and 15, 25 and 45 min following Triol, mambalgin-1 or saline administration.

stroke = settings: in vivo; cited from earlier work
[4] = test system: mice (depression-like behavior); assay: Forced swim test; assay type: in vivo, mouse
[5] = test system: ASIC currents (ASIC1a-like) in cortical neurons; assay: Patch-clamp recording of ASIC (ASIC1a-like) currents in primary cultured mouse cortical neurons; assay type: cell-based
homomeric ASIC3 = molecular target: T3, homomeric ASIC3 (Rattus norvegicus, UniProt O35240); assay: Patch-clamp recording of ASIC3 currents in CHO cells with transient expression
T3 sequence (O35240 1-533): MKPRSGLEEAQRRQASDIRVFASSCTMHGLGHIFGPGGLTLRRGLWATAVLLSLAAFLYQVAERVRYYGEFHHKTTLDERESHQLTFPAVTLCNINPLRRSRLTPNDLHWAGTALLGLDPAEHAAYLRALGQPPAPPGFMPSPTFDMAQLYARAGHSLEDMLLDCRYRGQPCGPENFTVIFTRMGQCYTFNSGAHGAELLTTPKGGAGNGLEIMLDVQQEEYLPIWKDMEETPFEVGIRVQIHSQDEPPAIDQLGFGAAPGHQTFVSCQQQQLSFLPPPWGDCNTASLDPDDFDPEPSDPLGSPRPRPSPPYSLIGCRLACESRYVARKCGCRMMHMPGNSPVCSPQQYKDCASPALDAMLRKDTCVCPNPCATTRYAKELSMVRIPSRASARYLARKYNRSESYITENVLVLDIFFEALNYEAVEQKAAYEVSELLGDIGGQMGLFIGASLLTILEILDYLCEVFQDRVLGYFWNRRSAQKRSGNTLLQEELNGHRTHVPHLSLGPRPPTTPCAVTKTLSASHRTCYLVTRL
Protocol: as §1, §2, §3

[6] = test system: primary cultured mouse cortical neurons; settings: pH 6.0, n=7-8
[7] = after 30 min washout (data not shown)
[8] = 10 μM, before and after perfusion for 5 min

CC(C)CCC[C@@H](C)[C@H]1CC[C@H]2[C@@H]3C[C@@H](O)[C@@]4(O)C[C@@H](O)CC[C@]4(C)[C@H]3CC[C@]12C [Triol, cholestane-3β, 5α, 6β-triol]
latency for the paw withdrawal reflex [1]: increases the latency for the paw withdrawal reflex | inhibition at 1 µM ([2]; 1 μM Triol, within 5 minutes of application, pH drop 7.4 to 6.0, n=5, read-out: inhibition of ASIC1a currents): ~20% | inhibition at 10 µM ([2]; 10 μM Triol, within 5 minutes of application, pH drop 7.4 to 6.0, n=5, read-out: inhibition of ASIC1a currents): ~40% | inhibition at 10 µM ([2]; 10 μM, once/one min, within 5 min of recording, read-out: inhibition of ASIC current, higher stimulatory frequency): ~40% | inhibition at 10 µM ([2]; 10 μM, once/two min, within 5 min of recording, read-out: inhibition of ASIC1a currents, lower stimulatory frequency): ~20% | reversibility of ASIC1a inhibition [2, 7]: irreversible | effect on ASIC2a currents (homomeric ASIC2a): no significant effect | effects in the pain tests relative to commonly used pain relief drugs [3]: independent of and additive to | pain-related behavior in vocalization and mechanical hypersensitivity tests [3]: decreased levels of pain-related behavior | therapeutic time window for stroke treatment (stroke): at least 4 h | depression-like behavior in the forced swim test [4]: decreased levels of depression-like behavior | effect on current-voltage relationship (IV) [5, 8]: does not affect the current-voltage relationship | shift in the pH dose-response of ASIC peak currents [5, 8]: not a significant shift | decrease of ASIC currents in cortical neurons ([5]; 10 μM, within 5 min of application/perfusion): ~40% | reversibility of ASIC current inhibition in cortical neurons [5, 7]: irreversible | voltage dependence of inhibitory activity ([5]; holding potential −60 mV vs −30 mV): no significant change in the inhibitory activity | inhibition at 10 µM (homomeric ASIC3; pH 5.5, read-out: inhibition of ASIC3 peak current component): ~23% | inhibition at 10 µM (homomeric ASIC3; pH 5.5, read-out: inhibition of ASIC3 sustained current component): ~54% | acid-induced cytotoxicity (LDH release) [6]: significantly decreased
